Test [1] addresses Vasopressin V1a receptor (Homo sapiens) (UniProt P37288). Put plainly: GPCRScan assay: inhibition of V1A. Also on record: radioligand conc. used [nm], parental cells. As to conditions: Compound concentration 10.0 uM.
Test [2] deals with Bone morphogenetic protein receptor type-2 (Homo sapiens) (UniProt Q13873). Put plainly: BMPR2 SGC Tm panel (DSF). Particulars: Compound concentration 20.0 uM.
For test [3], the target named is Calcium/calmodulin-dependent protein kinase type II subunit beta (Homo sapiens) (UniProt Q13554). Put plainly: CAMK2B SGC Tm panel (DSF). Particulars: Compound concentration 20.0 uM.
Sequence of Calcium/calmodulin-dependent protein kinase type II subunit beta (Homo sapiens) (Q13554 whole entry): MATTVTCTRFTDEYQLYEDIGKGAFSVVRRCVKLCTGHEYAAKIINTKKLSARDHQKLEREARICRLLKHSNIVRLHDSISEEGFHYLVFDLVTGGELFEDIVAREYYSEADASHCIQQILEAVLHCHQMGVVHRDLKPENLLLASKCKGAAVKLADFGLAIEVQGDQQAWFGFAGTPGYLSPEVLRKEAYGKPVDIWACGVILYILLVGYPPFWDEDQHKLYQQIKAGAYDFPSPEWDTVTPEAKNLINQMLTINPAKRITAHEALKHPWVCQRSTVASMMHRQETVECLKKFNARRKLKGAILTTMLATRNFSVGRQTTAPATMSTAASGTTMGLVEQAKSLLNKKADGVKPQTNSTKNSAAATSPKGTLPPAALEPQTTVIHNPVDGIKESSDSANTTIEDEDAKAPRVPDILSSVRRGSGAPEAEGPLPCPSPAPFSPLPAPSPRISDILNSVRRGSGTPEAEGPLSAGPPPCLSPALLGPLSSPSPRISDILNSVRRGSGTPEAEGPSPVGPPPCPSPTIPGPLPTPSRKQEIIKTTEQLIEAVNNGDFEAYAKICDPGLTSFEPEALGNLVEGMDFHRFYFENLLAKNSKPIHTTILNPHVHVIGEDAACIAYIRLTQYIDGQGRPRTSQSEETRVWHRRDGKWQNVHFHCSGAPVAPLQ
The target in test [4] is Ephrin type-A receptor 7 (Homo sapiens) (UniProt Q15375). As to the kind of experiment: EPHA7 SGC Tm panel (DSF). Particulars: Compound concentration 20.0 uM.
Sequence of Ephrin type-A receptor 7 (Homo sapiens) (Q15375 28-998 limits assumed): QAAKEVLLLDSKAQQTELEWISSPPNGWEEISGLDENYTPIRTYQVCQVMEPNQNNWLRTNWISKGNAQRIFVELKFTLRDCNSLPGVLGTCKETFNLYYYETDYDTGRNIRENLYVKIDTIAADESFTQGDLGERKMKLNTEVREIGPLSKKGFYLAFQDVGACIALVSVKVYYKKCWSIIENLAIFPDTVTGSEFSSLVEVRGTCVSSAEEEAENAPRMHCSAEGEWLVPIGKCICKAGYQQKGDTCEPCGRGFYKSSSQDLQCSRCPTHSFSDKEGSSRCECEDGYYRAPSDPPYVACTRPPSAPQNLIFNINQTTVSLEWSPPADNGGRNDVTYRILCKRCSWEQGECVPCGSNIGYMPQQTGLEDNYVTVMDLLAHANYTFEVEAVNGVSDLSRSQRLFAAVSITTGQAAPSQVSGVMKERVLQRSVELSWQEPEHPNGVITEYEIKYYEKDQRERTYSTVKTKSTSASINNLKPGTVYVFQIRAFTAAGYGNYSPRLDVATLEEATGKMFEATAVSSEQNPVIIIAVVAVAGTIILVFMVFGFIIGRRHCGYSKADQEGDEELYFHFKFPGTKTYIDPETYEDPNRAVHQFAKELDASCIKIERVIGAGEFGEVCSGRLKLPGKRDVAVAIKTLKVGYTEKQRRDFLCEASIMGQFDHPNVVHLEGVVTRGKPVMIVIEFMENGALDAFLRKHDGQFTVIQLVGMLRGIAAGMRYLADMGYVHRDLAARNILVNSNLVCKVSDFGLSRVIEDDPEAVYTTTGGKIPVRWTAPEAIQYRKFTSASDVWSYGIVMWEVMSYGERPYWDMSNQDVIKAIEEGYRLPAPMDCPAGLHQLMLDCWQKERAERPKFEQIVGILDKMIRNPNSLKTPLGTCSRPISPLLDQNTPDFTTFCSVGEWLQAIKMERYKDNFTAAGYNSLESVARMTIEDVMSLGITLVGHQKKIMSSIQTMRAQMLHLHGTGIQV
Test [5] addresses Ephrin type-B receptor 1 (Homo sapiens) (UniProt P54762). As to the kind of experiment: EPHB1 SGC Tm panel (DSF). As to conditions: Compound concentration 20.0 uM.
Test [6] concerns the target Serine/threonine-protein kinase 24 (Homo sapiens) (UniProt Q9Y6E0). As to the kind of experiment: STK24 SGC Tm panel (DSF). Particulars: Compound concentration 20.0 uM.
The target of the next test is Histamine H3 receptor (Homo sapiens, UniProt Q9Y5N1). As to conditions: Compound concentration 10.0 uM.
Sequence of Histamine H3 receptor (Q9Y5N1 whole entry): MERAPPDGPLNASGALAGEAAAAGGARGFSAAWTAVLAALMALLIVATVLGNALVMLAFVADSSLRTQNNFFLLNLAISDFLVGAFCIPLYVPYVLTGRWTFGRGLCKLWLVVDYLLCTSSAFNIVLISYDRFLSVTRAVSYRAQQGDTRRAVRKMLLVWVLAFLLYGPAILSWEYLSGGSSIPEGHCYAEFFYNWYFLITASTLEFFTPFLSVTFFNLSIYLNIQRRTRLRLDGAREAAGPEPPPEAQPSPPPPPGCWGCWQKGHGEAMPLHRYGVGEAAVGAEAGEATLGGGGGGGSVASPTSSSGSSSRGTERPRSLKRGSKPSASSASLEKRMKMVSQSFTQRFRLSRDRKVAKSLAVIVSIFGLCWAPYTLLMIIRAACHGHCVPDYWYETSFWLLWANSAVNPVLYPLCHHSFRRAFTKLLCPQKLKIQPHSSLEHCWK
For another test, the species on record is Rattus norvegicus. Particulars: Compound concentration 10.0 uM.
Test [7] deals with T1, Zinc finger and BTB domain-containing protein 44 (Homo sapiens) (UniProt Q8NCP5).
T1 sequence (whole entry): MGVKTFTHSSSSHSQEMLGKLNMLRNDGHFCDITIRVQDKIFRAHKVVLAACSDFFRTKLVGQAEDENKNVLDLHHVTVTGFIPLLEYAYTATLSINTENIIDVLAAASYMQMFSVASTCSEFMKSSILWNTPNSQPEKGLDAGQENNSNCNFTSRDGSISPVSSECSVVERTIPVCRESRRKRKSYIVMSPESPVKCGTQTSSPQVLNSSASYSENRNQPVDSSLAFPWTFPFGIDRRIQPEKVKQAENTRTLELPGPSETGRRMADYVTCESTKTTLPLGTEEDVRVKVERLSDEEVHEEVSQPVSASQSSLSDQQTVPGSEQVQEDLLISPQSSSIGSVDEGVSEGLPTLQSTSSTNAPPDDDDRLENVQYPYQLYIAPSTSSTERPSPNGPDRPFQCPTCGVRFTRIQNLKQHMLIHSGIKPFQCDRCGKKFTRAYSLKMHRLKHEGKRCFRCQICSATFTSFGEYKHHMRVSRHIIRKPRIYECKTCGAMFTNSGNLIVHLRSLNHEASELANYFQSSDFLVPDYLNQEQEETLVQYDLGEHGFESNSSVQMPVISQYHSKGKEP
Particulars: SUD4, Compound concentration 1.0 uM.

Test [8] concerns the target T2, Zinc finger and BTB domain-containing protein 2 (Homo sapiens) (UniProt Q8N680).
T2 sequence (whole entry): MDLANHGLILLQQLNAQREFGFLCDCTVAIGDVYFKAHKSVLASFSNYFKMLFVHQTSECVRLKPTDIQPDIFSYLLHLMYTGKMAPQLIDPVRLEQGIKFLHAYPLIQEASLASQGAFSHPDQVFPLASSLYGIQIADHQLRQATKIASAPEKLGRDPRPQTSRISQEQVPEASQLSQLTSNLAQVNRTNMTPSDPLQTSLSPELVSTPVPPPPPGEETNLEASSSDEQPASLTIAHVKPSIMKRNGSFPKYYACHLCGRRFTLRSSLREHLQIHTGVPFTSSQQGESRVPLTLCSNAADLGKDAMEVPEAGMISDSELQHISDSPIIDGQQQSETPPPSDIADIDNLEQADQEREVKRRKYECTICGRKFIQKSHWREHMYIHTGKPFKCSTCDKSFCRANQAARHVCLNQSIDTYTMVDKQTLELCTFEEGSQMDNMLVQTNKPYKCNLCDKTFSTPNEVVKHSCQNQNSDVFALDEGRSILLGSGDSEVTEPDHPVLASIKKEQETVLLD
As to conditions: SUD4, Compound concentration 1.0 uM.

Test [9] deals with T3, Zinc finger protein 131 (Homo sapiens) (UniProt P52739).
T3 sequence (whole entry): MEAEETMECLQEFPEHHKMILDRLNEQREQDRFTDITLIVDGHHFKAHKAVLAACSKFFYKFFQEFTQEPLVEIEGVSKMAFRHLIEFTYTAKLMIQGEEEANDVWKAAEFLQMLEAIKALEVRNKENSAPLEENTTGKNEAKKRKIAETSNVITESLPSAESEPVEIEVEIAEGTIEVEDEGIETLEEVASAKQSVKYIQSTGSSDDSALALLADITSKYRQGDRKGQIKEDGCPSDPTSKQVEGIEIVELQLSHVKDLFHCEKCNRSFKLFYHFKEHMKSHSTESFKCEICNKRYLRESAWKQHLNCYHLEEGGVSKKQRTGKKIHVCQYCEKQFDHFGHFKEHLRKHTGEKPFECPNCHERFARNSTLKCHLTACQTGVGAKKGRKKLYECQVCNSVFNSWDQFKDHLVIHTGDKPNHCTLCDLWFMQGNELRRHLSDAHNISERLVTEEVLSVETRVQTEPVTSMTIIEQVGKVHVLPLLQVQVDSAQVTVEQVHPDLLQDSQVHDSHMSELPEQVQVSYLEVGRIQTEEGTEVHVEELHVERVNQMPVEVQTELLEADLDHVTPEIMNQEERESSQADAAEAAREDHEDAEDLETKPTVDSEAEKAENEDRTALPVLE
As to conditions: SUD4, Compound concentration 1.0 uM.

Test [10] has as its target T4, Transcriptional regulator Kaiso (Homo sapiens) (UniProt Q86T24).
T4 sequence (whole entry): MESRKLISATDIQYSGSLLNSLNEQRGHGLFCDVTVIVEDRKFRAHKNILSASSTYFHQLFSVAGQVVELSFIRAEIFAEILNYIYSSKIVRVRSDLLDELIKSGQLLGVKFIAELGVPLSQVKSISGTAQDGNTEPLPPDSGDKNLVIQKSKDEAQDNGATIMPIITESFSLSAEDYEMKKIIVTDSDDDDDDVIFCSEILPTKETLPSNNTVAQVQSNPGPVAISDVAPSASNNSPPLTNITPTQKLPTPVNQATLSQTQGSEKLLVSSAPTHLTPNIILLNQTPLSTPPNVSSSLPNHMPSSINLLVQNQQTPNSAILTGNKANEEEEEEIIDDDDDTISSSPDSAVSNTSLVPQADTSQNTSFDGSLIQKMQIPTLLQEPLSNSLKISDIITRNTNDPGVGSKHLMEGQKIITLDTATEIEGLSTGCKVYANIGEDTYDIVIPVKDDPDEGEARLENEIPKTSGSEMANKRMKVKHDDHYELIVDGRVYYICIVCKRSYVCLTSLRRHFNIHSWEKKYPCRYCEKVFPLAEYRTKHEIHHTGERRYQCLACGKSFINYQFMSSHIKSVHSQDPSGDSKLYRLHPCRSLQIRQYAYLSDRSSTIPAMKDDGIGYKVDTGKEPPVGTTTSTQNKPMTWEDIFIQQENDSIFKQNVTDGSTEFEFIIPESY
As to conditions: SUD4, Compound concentration 1.0 uM.

The target in test [11] is T1, Zinc finger and BTB domain-containing protein 44 (Homo sapiens). Particulars: OCI-Ly1, Compound concentration 1.0 uM.

Sequence of Serine/threonine-protein kinase 24 (Homo sapiens) (Q9Y6E0 whole entry, looked up): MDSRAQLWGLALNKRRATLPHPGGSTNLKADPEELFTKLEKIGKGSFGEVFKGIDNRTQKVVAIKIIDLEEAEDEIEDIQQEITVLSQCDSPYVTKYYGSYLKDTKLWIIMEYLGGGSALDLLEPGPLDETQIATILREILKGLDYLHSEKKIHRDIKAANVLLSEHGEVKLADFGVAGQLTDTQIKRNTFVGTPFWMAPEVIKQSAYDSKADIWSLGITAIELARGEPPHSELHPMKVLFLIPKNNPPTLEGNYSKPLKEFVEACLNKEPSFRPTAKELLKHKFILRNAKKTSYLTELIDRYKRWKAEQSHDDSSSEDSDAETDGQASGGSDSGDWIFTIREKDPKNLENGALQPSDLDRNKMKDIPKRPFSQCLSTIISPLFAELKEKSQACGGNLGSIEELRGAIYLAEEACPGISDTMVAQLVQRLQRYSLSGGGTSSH
Sequence of Vasopressin V1a receptor (Homo sapiens) (P37288 whole entry, looked up): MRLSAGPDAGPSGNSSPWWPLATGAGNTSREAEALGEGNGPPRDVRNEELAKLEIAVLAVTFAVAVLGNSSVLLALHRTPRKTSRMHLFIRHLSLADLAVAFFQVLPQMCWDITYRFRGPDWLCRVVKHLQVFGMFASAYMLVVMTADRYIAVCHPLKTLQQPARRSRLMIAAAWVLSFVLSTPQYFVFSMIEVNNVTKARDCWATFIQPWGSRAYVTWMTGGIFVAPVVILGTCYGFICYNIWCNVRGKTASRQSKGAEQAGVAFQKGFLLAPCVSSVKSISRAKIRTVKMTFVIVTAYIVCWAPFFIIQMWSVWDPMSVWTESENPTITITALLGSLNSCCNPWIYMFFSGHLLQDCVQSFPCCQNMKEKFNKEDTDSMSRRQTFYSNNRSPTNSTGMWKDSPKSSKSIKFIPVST
Sequence of Ephrin type-B receptor 1 (Homo sapiens) (P54762 whole entry): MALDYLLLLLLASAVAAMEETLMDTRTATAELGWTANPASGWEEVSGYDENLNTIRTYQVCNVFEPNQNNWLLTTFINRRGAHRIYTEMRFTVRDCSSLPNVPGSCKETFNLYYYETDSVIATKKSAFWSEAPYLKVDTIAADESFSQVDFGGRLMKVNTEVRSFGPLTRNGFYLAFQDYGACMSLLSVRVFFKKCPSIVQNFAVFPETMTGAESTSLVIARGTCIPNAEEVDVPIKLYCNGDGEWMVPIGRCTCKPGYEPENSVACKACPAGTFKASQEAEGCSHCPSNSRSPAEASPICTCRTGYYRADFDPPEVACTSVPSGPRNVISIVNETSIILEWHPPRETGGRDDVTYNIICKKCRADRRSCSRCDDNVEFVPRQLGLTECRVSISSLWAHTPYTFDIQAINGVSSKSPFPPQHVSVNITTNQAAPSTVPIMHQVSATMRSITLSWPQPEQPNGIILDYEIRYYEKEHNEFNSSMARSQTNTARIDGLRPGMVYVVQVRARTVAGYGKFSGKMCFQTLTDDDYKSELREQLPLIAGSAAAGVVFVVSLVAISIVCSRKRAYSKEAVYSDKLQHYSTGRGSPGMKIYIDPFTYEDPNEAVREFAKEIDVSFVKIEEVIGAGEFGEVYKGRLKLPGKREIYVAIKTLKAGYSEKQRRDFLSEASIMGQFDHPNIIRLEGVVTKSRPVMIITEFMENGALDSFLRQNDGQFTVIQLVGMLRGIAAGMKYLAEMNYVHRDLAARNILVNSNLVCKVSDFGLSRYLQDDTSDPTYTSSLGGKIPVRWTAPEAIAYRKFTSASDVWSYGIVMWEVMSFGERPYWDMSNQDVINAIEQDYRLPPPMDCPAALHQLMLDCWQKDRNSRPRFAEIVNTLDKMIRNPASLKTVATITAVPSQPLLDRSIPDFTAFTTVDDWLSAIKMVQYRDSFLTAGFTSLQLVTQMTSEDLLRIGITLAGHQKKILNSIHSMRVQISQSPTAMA
Sequence of Bone morphogenetic protein receptor type-2 (Homo sapiens) (Q13873 whole entry): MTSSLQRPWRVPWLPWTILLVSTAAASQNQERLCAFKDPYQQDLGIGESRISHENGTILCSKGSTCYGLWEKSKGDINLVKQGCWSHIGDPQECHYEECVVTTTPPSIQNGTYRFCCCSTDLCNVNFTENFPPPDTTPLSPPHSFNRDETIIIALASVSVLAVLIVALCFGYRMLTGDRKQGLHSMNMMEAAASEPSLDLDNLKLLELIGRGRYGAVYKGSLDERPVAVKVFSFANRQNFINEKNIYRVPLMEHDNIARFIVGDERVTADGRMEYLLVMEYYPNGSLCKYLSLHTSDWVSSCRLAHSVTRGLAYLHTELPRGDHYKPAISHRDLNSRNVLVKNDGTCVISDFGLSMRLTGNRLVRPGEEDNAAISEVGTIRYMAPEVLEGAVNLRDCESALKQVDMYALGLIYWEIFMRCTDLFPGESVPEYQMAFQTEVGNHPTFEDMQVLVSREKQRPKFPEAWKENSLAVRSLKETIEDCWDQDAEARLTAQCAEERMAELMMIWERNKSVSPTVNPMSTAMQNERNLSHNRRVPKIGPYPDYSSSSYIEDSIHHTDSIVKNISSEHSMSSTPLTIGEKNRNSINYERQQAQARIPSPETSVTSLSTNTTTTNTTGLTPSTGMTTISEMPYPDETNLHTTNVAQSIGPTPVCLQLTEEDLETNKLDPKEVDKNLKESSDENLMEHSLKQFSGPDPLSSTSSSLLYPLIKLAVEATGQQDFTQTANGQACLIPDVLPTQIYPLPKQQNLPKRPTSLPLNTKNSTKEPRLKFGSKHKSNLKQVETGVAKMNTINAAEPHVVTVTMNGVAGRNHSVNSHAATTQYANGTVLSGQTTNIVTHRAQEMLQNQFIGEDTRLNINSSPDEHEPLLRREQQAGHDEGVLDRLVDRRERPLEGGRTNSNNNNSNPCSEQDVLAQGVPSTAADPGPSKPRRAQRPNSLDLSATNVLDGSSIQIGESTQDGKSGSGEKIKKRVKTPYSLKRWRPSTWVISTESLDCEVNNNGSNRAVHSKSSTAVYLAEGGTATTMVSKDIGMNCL

On to `C[C@@H]1CN(c2ncc(Cl)c(Nc3ccc4c(c3)n(CCC(C)(C)O)c(=O)n4C)n2)C[C@H](C)C1(F)F`, for which the figures for the inhibition (in test [1]; at Histamine H3 receptor; in the test listed under Rattus norvegicus) were 78.6%, 60.7% and 59.6%, respectively. The Tm (as a rule, the temperature at the midpoint of the melting transition) in test [2] is 51 °C; in test [3], 47 °C; in test [4] it was 48 °C; in [5], 57 °C; in test [6], 36 °C. Besides, the LogFC is -0.00843 in [7]; 0.029 in [8]; 0.111 in test [9]; -0.022 in [10]; 0.423 in test [11].

The record behind these values is ChEMBL document CHEMBL5058646 (2022).
